Laboratory results taken from PubChem BioAssay AID2060600 (Molecular Pharmacology Branch, DTP, NCI, 2025).

Test system: 996289-038-R-J1-PDC complex spheroid viability
Assay: Anticancer human tumor 996289-038-R-J1-PDC patient-derived colon adenocarcinoma cell line growth inhibition [CLK]
Settings: for IC50: curve of first compound; for viability, T/C: stronger effect = lower value
Summary of the method: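 Multi-cell-type spheroids combined patient-derived tumor cells with HUVEC endothelial cells and human mesenchymal stem cells. Paired agents were dosed in half-log steps down from about clinical Cmax, or from 10 microM where Cmax was unknown.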
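Further: spheroids exposed to the agents for 7 days before readout.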

SMILES: Nc1ccn(C2OC(CO)C(O)C2(F)F)c(=O)n1 (configuration not stated) + CN1CCN(c2cc(C(=O)Nc3cc4cc(-c5cnn(C)c5)ccc4cn3)ccn2)CC1
- IC50 (second compound 0.0316 µM): 851 nM
- IC50 (second compound 0.1 µM): 406 nM
- IC50 (second compound 0.316 µM): 130 nM
- IC50 (second compound 1 µM): < 31.6 nM
- IC50 (second compound 3.16 µM): < 31.6 nM
- IC50 (second compound 10 µM): < 31.6 nM
- viability, T/C (second compound 0.0316 µM, first compound 0.0316 µM): 86.7%
- viability, T/C (second compound 0.0316 µM, first compound 0.1 µM): 62.6%
- viability, T/C (second compound 0.0316 µM, first compound 0.316 µM): 54.5%
- viability, T/C (second compound 0.0316 µM, first compound 1 µM): 51.5%
- viability, T/C (second compound 0.0316 µM, first compound 3.16 µM): 49.1%
- viability, T/C (second compound 0.0316 µM, first compound 10 µM): 43.4%
- viability, T/C (second compound 0.1 µM, first compound 0.0316 µM): 74.6%
- viability, T/C (second compound 0.1 µM, first compound 0.1 µM): 56.4%
- viability, T/C (second compound 0.1 µM, first compound 0.316 µM): 53.2%
- viability, T/C (second compound 0.1 µM, first compound 1 µM): 46.9%
- viability, T/C (second compound 0.1 µM, first compound 3.16 µM): 41.2%
- viability, T/C (second compound 0.1 µM, first compound 10 µM): 35.8%
- viability, T/C (second compound 0.316 µM, first compound 0.0316 µM): 57.7%
- viability, T/C (second compound 0.316 µM, first compound 0.1 µM): 52%
- viability, T/C (second compound 0.316 µM, first compound 0.316 µM): 43.3%
- viability, T/C (second compound 0.316 µM, first compound 1 µM): 39.2%
- viability, T/C (second compound 0.316 µM, first compound 3.16 µM): 36.2%
- viability, T/C (second compound 0.316 µM, first compound 10 µM): 26%
- viability, T/C (second compound 1 µM, first compound 0.0316 µM): 4.69%
- viability, T/C (second compound 1 µM, first compound 0.1 µM): 4.7%
- viability, T/C (second compound 1 µM, first compound 0.316 µM): 3.37%
- viability, T/C (second compound 1 µM, first compound 1 µM): 6.26%
- viability, T/C (second compound 1 µM, first compound 3.16 µM): 3.39%
- viability, T/C (second compound 1 µM, first compound 10 µM): 3.71%
- viability, T/C (second compound 3.16 µM, first compound 0.0316 µM): 1.41%
- viability, T/C (second compound 3.16 µM, first compound 0.1 µM): 1.07%
- viability, T/C (second compound 3.16 µM, first compound 0.316 µM): 1.65%
- viability, T/C (second compound 3.16 µM, first compound 1 µM): 1%
- viability, T/C (second compound 3.16 µM, first compound 3.16 µM): 1.01%
- viability, T/C (second compound 3.16 µM, first compound 10 µM): 2.06%
- viability, T/C (second compound 10 µM, first compound 0.0316 µM): 0.95%
- viability, T/C (second compound 10 µM, first compound 0.1 µM): 1.01%
- viability, T/C (second compound 10 µM, first compound 0.316 µM): 0.41%
- viability, T/C (second compound 10 µM, first compound 1 µM): 1.58%
- viability, T/C (second compound 10 µM, first compound 3.16 µM): 0.37%
- viability, T/C (second compound 10 µM, first compound 10 µM): 0.35%
